This is an account of results in patent publication US20230167073A1 (Teijin Pharma Limited, priority 2020, published 2023).

A value given as a limit tells only on which side of the number the result lay.

The first assay addresses T1, Human TRPC6 (Homo sapiens, UniProt Q9Y210).
T1 construct: expressed in transfected cells
T1 sequence (Q9Y210 1-931): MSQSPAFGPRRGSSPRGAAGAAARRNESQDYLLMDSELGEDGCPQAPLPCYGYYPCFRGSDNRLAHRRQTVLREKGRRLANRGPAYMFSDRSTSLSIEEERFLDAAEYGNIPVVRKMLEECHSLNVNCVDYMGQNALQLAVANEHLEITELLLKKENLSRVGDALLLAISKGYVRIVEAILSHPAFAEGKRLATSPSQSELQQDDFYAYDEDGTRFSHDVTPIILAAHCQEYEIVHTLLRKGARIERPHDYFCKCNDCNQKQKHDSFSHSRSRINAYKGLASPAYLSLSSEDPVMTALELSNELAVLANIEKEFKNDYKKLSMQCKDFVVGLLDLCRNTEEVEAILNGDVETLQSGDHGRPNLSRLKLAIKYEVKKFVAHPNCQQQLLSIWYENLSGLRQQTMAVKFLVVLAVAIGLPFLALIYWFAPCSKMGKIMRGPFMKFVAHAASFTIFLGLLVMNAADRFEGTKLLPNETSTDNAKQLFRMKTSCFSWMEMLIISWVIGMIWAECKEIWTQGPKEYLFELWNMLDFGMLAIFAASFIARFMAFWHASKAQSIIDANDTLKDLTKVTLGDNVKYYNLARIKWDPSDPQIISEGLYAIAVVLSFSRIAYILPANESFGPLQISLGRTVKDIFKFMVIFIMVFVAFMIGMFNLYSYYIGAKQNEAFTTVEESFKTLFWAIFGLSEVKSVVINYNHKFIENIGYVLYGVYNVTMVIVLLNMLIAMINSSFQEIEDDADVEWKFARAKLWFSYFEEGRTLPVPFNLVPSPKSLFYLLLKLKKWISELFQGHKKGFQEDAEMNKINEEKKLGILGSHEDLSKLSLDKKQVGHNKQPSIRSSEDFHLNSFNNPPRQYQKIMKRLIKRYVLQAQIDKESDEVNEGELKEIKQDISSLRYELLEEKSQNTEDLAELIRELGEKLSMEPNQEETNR
Kind of assay: Evaluation of TRPC6 channel inhibitory activity (1), FLIPR Calcium 5 Assay Kit, OAG stimulation (Compound Nos. 1-1293). Format: cell-based.
Conditions: not given
Summed up:
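Stable human TRPC6 line; fluorescent Ca2+ dye loading, then 20 min compound exposure before 30 μM OAG trigger. Peak-minus-baseline signal converted to % inhibition against untreated and unstimulated wells; potency given as pIC50 band.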
As for `N#Cc1ccc(-c2ncc(CCN)cn2)c(Oc2nnc(N3C4CCC3CC4)s2)c1` [compound 767, 4-[5-(2-aminoethyl)pyrimidin-2-yl]-3-[[5-(7-azabicyclo[2.2.1]heptan-7-yl)-1,3,4-thiadiazol-2-yl]oxy]benzonitrile], the IC50 is < 10 nM.

The assay is the same for the next values; noted with them: Human TRPC6 stably-expressing cells, OAG 30 μM, FLIPR Calcium 5 Assay Kit; read-out: Inhibitory activity (pIC50 class) (converted).
For the molecule `COC(c1cc(C#N)ccc1-c1ncc(CCN)cn1)c1cc(C(C)(C)C)nn1C` (stereo not drawn) [compound 1236, 4-[5-(2-aminoethyl)pyrimidin-2-yl]-3-[(5-tert-butyl-2-methylpyrazol-3-yl)-methoxymethyl]benzonitrile], the IC50 was 10 to 1000 nM. In the case of `N#Cc1ccc(-c2ccc(CN)cn2)c(C(=O)c2nnc(N3CCOCC3)o2)c1` [compound 1089, 4-[5-(aminomethyl)pyridin-2-yl]-3-(5-morpholin-4-yl-1,3,4-oxadiazole-2-carbonyl)benzonitrile], the IC50 is 10 to 1000 nM. In the case of `Cc1cc(Oc2cc(C#N)ccc2-c2ccc(OC3CNC3)cn2)cc(N2CCOCC2)n1` [compound 564, 4-[5-(azetidin-3-yloxy)pyridin-2-yl]-3-(2-methyl-6-morpholin-4-ylpyridin-4-yl)oxybenzonitrile], the IC50 is 10 to 1000 nM. Still for that read-out and setting: the figure for `CCC(N)c1cnc(-c2ccc(C#N)cc2Oc2cc(C)nc(N3CCOCC3)c2)nc1` (stereo not drawn) [compound 735, 4-[5-(1-aminopropyl)pyrimidin-2-yl]-3-(2-methyl-6-morpholin-4-ylpyridin-4-yl)oxybenzonitrile] is < 10 nM; for `CN(C)C(=O)CNC(C)(C)Cc1ccc(-c2ccc(C#N)cc2Oc2cc(-c3ccccn3)nn2C)nc1` [compound 839, 2-[[1-[6-[4-cyano-2-(2-methyl-5-pyridin-2-ylpyrazol-3-yl)oxyphenyl]pyridin-3-yl]-2-methylpropan-2-yl]amino]-N,N-dimethylacetamide] it is > 1000 nM. On the same count and under the same terms, the figure for `Cc1nc(Oc2cc(C#N)ccc2-c2ncc(CCN)cn2)cc(N(C)CC2CC2)n1` [compound 861, 4-[5-(2-aminoethyl)pyrimidin-2-yl]-3-[6-[cyclopropylmethyl(methyl)amino]-2-methylpyrimidin-4-yl]oxybenzonitrile] is < 10 nM. Consider `Cc1nnc(N2CCCC2)cc1Oc1cc(C#N)ccc1-c1ncc(CN)cn1` [compound 824, 4-[5-(aminomethyl)pyrimidin-2-yl]-3-(3-methyl-6-pyrrolidin-1-ylpyridazin-4-yl)oxybenzonitrile], for which the IC50 is 10 to 1000 nM. `CCc1cc(Oc2cc(C#N)ccc2-c2ncc(CCN)cn2)n(C)n1` [Compound 293, 4-[5-(2-aminoethyl)pyrimidin-2-yl]-3-(5-ethyl-2-methylpyrazol-3-yl)oxybenzonitrile]: the IC50 was < 10 nM. Same read-out and setting: the figure for `Cc1cc(Oc2cc(C#N)ccc2-c2ccc(OCCN)cn2)n(C)n1` [compound 349, 4-[5-(2-aminoethoxy)pyridin-2-yl]-3-(2,5-dimethylpyrazol-3-yl)oxybenzonitrile] is > 1000 nM; for `COc1ccccc1-c1cc(Oc2cc(C#N)ccc2-c2ccc(C(O)CN)cn2)n(C)n1` (stereo not drawn) [compound 320, 4-[5-(2-amino-1-hydroxyethyl)pyridin-2-yl]-3-[5-(2-methoxyphenyl)-2-methylpyrazol-3-yl]oxybenzonitrile] it is < 10 nM.

For `Cn1nc(C2CCOCC2)cc1Oc1cc(F)ccc1-c1ncc(CCN)cn1` [compound 1009, 2-[2-[4-fluoro-2-[2-methyl-5-(oxan-4-yl)pyrazol-3-yl]oxyphenyl]pyrimidin-5-yl]ethanamine], the IC50 was 10 to 1000 nM.

`N#Cc1ccc(-c2ncc(CN)cn2)c(Oc2nnc(N3CCCC3)s2)c1` [compound 725, 4-[5-(aminomethyl)pyrimidin-2-yl]-3-[(5-pyrrolidin-1-yl-1,3,4-thiadiazol-2-yl)oxy]benzonitrile]: the IC50 is > 1000 nM.

Turning to `CCN(CC)c1cc(Oc2cc(C#N)ccc2-c2ncc([C@H](F)CN)cn2)n(C)n1` [compound 913, 4-[5-[(1S)-2-amino-1-fluoroethyl]pyrimidin-2-yl]-3-[5-(diethylamino)-2-methylpyrazol-3-yl]oxybenzonitrile], the IC50 was < 10 nM. The same measure, in the same setting: the figure for `COCCN(C)c1cc(Oc2cc(C#N)ccc2-c2ncc(CN)cn2)nc(C)n1` [compound 797, 4-[5-(aminomethyl)pyrimidin-2-yl]-3-[6-[2-methoxyethyl(methyl)amino]-2-methylpyrimidin-4-yl]oxybenzonitrile] is > 1000 nM; for `Cn1nc(N2CCOCC2)cc1Oc1cc(C#N)ccc1-c1ncc(CN)cn1` [compound 772, 4-[5-(aminomethyl)pyrimidin-2-yl]-3-(2-methyl-5-morpholin-4-ylpyrazol-3-yl)oxybenzonitrile] it is < 10 nM; for `Cc1nn(CC(C)(C)C)cc1Oc1cc(F)ccc1-c1ncc(CCN)cn1` [compound 985, 2-[2-[2-[1-(2,2-dimethylpropyl)-3-methylpyrazol-4-yl]oxy-4-fluorophenyl]pyrimidin-5-yl]ethanamine] it is < 10 nM. Turning to `Cn1nc(C2CCOCC2)cc1Oc1cc(C#N)ccc1-c1ccc(CN)cn1` [compound 440, 4-[5-(aminomethyl)pyridin-2-yl]-3-[2-methyl-5-(oxan-4-yl)pyrazol-3-yl]oxybenzonitrile], the IC50 is < 10 nM. Still for that read-out and setting: the figure for `N#Cc1ccc(-c2ncc(CCN)cn2)c(Oc2nnc(-c3ccccn3)s2)c1` [compound 703, 4-[5-(2-aminoethyl)pyrimidin-2-yl]-3-[(5-pyridin-2-yl-1,3,4-thiadiazol-2-yl)oxy]benzonitrile] is 10 to 1000 nM; for `Cc1nc(Oc2cc(C#N)ccc2-c2ncc(CN)cn2)cc(OC2CC2)n1` [compound 898, 4-[5-(aminomethyl)pyrimidin-2-yl]-3-(6-cyclopropyloxy-2-methylpyrimidin-4-yl)oxybenzonitrile] it is > 1000 nM; for `COC(C)c1cn(Cc2cc(C#N)ccc2-c2ncc(CCN)cn2)c(C)n1` (stereo not drawn) [compound 1141, 4-[5-(2-aminoethyl)pyrimidin-2-yl]-3-[[4-(1-methoxyethyl)-2-methylimidazol-1-yl]methyl]benzonitrile] it is 10 to 1000 nM. For `Cc1cc(Oc2cc(C#N)ccc2-c2ccc([C@H](O)CN)cn2)cc(-c2nc(C)cs2)n1` [compound 694, 4-[5-[(1S)-2-amino-1-hydroxyethyl]pyridin-2-yl]-3-[2-methyl-6-(4-methyl-1,3-thiazol-2-yl)pyridin-4-yl]oxybenzonitrile], the IC50 was 10 to 1000 nM.

`Cc1nc(Oc2cc(C#N)ccc2-c2ncc(CN)cn2)cc(N(C)C2COC2)n1` [compound 852, 4-[5-(aminomethyl)pyrimidin-2-yl]-3-[2-methyl-6-[methyl(oxetan-3-yl)amino]pyrimidin-4-yl]oxybenzonitrile]: the IC50 was > 1000 nM.

Take `N#Cc1ccc(-c2ccc(CCN)cc2)c(Oc2cc(N3CCOCC3)nc(C(F)(F)F)n2)c1` [Compound 113, 4-[4-(2-aminoethyl)phenyl]-3-[6-morpholin-4-yl-2-(trifluoromethyl)pyrimidin-4-yl]oxybenzonitrile]: the IC50 is < 10 nM.

Take `COCCN(C)c1cc(Oc2cc(C#N)ccc2-c2ncc(CCN)cn2)nc(C)n1` [compound 862, 4-[5-(2-aminoethyl)pyrimidin-2-yl]-3-[6-[2-methoxyethyl(methyl)amino]-2-methylpyrimidin-4-yl]oxybenzonitrile]: the IC50 is 10 to 1000 nM. On the same count and under the same terms, to `Cn1nc(-c2ccccn2)cc1Oc1cc(C#N)ccc1-c1ccc(CN)n2cnnc12` [compound 589, 4-[5-(aminomethyl)-[1,2,4]triazolo[4,3-a]pyridin-8-yl]-3-(2-methyl-5-pyridin-2-ylpyrazol-3-yl)oxybenzonitrile] belongs 10 to 1000 nM.

Consider `Cn1nc(-c2cncs2)cc1Oc1cc(C#N)ccc1-c1ncc(CCN)cn1` [compound 951, 4-[5-(2-aminoethyl)pyrimidin-2-yl]-3-[2-methyl-5-(1,3-thiazol-5-yl)pyrazol-3-yl]oxybenzonitrile], for which the IC50 is < 10 nM. On the same count and under the same terms, to `Cn1nc(C2CC2)cc1Oc1cc(C#N)ccc1-c1nccc(CN)n1` [compound 680, 4-[4-(aminomethyl)pyrimidin-2-yl]-3-(5-cyclopropyl-2-methylpyrazol-3-yl)oxybenzonitrile] belongs > 1000 nM; to `N#Cc1ccc(-n2cc(CCN)cn2)c(Oc2cnnc(N3CCCC3)c2)c1` [Compound 284, 4-[4-(2-Aminoethyl)pyrazol-1-yl]-3-(6-pyrrolidin-1-ylpyridazin-4-yl)oxybenzonitrile], 10 to 1000 nM; to `Cc1nc(N2CCOCC2)sc1C(=O)c1cc(C#N)ccc1-c1ccc(CCN)cc1` [compound 1059, 4-[4-(2-aminoethyl)phenyl]-3-(4-methyl-2-morpholin-4-yl-1,3-thiazole-5-carbonyl)benzonitrile], < 10 nM.
